Assay results from patent US20250320206A1, “STAT6 DEGRADERS” (Gilead Sciences, Inc., priority 2024, published 2025).

Tests used:
STAT6 = biological target: T1, STAT6 (Homo sapiens, UniProt P42226); assay: Stat6 Degrader Assay (HiBiT based, HeLa LgBiT clone 4.14); format: cell-based; conditions: HeLa LgBiT clone 4.14 HiBiT-STAT6, 4-24 h incubation; values given for compounds with >80% Emax; geometric mean; read-out: STAT6 degradation DC50
T1 construct: These cells express endogenous STAT6; host or cells: HeLa LgBiT clone 4.14
T1 sequence (P42226 1-847): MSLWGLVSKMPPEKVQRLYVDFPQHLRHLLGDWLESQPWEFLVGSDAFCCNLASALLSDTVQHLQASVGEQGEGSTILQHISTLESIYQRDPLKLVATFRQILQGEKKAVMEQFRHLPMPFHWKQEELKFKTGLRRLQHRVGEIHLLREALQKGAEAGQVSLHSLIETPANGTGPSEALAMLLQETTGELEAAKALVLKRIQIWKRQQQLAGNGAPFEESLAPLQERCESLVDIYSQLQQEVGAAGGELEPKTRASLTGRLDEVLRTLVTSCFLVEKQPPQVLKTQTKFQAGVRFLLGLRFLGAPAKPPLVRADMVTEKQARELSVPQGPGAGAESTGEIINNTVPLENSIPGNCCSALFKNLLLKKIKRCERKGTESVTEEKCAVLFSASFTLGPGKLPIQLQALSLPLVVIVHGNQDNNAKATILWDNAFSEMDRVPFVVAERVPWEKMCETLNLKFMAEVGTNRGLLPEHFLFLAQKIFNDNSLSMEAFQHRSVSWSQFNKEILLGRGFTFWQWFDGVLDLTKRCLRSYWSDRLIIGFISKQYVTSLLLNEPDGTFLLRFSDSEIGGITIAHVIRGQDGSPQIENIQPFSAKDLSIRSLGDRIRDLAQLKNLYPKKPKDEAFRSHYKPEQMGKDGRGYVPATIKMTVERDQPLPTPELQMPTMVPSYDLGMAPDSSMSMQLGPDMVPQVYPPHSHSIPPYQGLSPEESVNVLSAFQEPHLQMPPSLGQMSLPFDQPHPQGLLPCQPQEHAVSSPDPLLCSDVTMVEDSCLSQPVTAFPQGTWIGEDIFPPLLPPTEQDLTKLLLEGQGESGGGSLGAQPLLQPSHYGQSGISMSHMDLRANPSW
Summary of the method: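 Luminescence from HiBiT-STAT6 complementing stably expressed LgBiT in HeLa clone 4.14 reports remaining STAT6 protein. Cells (5000/well) exposed to compound for 4-24 h at 37° C; read 0.5 h after Nano-Glo addition. 100% degradation window set with 50 μM terfenadine; percent degradation plotted against concentration.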

[1] = test system: Eotaxin-3 release in human whole blood stimulated with IL-4; assay: Human Whole Blood Eotaxin-3 Assay (IL-4 stimulated eotaxin-3 release); format: cell-based; conditions: IL-4 stimulation, 48 h, values given for compounds with >80% Emax, geometric mean
Summary of the method: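 Eotaxin-3 (CCL26) release measured by MSD kit in plasma supernatant after 48 h IL-4 stimulation ([…]) of human whole blood. Compounds added in triplicate 4-fold dilutions 2 h before stimulation; 0.5% DMSO final, 37° C, 5% CO2.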

DC50 (STAT6) [nM]	EC50 [1] [nM]	SMILES
3.5	15.2	CNc1cc(=O)n(-c2ccnc3c2cc([C@H](C)N2CC=C(c4c(C)cc(C(=O)N5CCC(CN6CCN(Cc7ccc8c(c7)C(C)(C)C(=O)N8C7CCC(=O)NC7=O)CC6)CC5)cc4F)CC2)n3C)cc1F (stereo partly drawn) [Example 3u87, 3-(5-((4-((1-(3-fluoro-4-(1-((S)-1-(4-(5-fluoro-4-(methylamino)-2-oxopyridin-1 (2H)-yl)-1-methyl-1H-pyrrolo[2,3-b]pyridin-2-yl)ethyl)-1,2,3,6-tetrahydropyridin-4-yl)-5-methylbenzoyl)piperidin-4-yl)methyl)piperazin-1-yl)methyl)-3,3-dimethyl-2-oxoindolin-1-yl)piperidine-2,6-dione]
0.3	0.9	CNc1cc(=O)n(-c2ccnc3c2cc([C@H](C)N2CC=C(c4c(C)cc(C(=O)N5CCC(CN6CCN(Cc7ccc8c(c7)n(C)c(=O)n8C7CCC(=O)NC7=O)C[C@@H]6C)CC5)cc4F)CC2)n3C)cc1F (stereo partly drawn) [Example 3u90, 3-(5-(((S)-4-((1-(3-fluoro-4-(1-((S)-1-(4-(5-fluoro-4-(methylamino)-2-oxopyridin-1 (2H)-yl)-1-methyl-1H-pyrrolo[2,3-b]pyridin-2-yl)ethyl)-1,2,3,6-tetrahydropyridin-4-yl)-5-methylbenzoyl)piperidin-4-yl)methyl)-3-methylpiperazin-1-yl)methyl)-3-methyl-2-oxo-2,3-dihydro-1H-benzo[d]imidazol-1-yl)piperidine-2,6-dione]
26.9	16.6	CNc1cc(=O)n(-c2ccnc3c2cc(CN2CCC(c4c(F)cc(C(=O)N5CCC(CN6CCN(Cc7cc8c(cc7F)N(C7CCC(=O)NC7=O)C(=O)C87CC7)CC6)CC5)cc4F)CC2)n3C)cc1F (stereo not shown) [Example 3u93, 3-(5′-((4-((1-(3,5-difluoro-4-(1-((4-(5-fluoro-4-(methylamino)-2-oxopyridin-1 (2H)-yl)-1-methyl-1H-pyrrolo[2,3-b]pyridin-2-yl)methyl)piperidin-4-yl)benzoyl)piperidin-4-yl)methyl)piperazin-1-yl)methyl)-6′-fluoro-2′-oxospiro[cyclopropane-1,3′-indolin]-1′-yl)piperidine-2,6-dione]
4.1	1	C[C@H]1CN(Cc2ccc3c(c2)C2(CC2)C(=O)N3C2CCC(=O)NC2=O)CCN1CC1CCN(C(=O)c2cc(F)c(C3CCN(Cc4cc5c(-n6cc(F)c(N)c(F)c6=O)ccnc5n4C)CC3)c(F)c2)CC1 (stereo partly drawn) [Example 3u96, 3-(5′-(((S)-4-((1-(4-(1-((4-(4-amino-3,5-difluoro-2-oxopyridin-1 (2H)-yl)-1-methyl-1H-pyrrolo[2,3-b]pyridin-2-yl)methyl)piperidin-4-yl)-3,5-difluorobenzoyl)piperidin-4-yl)methyl)-3-methylpiperazin-1-yl)methyl)-2′-oxospiro[cyclopropane-1,3′-indolin]-1′-yl)piperidine-2,6-dione]
2.3	2.4	C[C@H]1CN(Cc2ccc3c(c2)C2(CCC2)C(=O)N3C2CCC(=O)NC2=O)CCN1CC1CCN(C(=O)c2cc(F)c(C3CCN(Cc4cc5c(-n6ccc7c(c6=O)CCN7)ccnc5n4C)CC3)c(F)c2)CC1 (stereo partly drawn) [Example 3u101, 3-(5′-(((S)-4-((1-(3,5-difluoro-4-(1-((1-methyl-4-(4-oxo-1,2,3,4-tetrahydro-5H-pyrrolo[3,2-c]pyridin-5-yl)-1H-pyrrolo[2,3-b]pyridin-2-yl)methyl)piperidin-4-yl)benzoyl)piperidin-4-yl)methyl)-3-methylpiperazin-1-yl)methyl)-2′-oxospiro[cyclobutane-1,3′-indolin]-1′-yl)piperidine-2,6-dione]
3.4	1.9	CNc1nc(=O)n(-c2ccnc3c2cc([C@H](C)N2CC=C(c4c(C)cc(C(=O)N5CCC(CN6CCN(Cc7ccc8c(c7)C7(CC7)C(=O)N8C7CCC(=O)NC7=O)C[C@@H]6C)CC5)cc4F)CC2)n3C)cc1F (stereo partly drawn) [Example 3u102, 3-(5′-(((S)-4-((1-(3-fluoro-4-(1-((S)-1-(4-(5-fluoro-4-(methylamino)-2-oxopyrimidin-1 (2H)-yl)-1-methyl-1H-pyrrolo[2,3-b]pyridin-2-yl)ethyl)-1,2,3,6-tetrahydropyridin-4-yl)-5-methylbenzoyl)piperidin-4-yl)methyl)-3-methylpiperazin-1-yl)methyl)-2′-oxospiro[cyclopropane-1,3′-indolin]-1′-yl)piperidine-2,6-dione]
2.3	0.8	C[C@H]1CN(Cc2ccc3c(c2)n(C2CC2)c(=O)n3C2CCC(=O)NC2=O)CCN1CC1CCN(C(=O)c2cc(F)c(C3CCN(Cc4cc5c(-n6ccc7c(c6=O)CCN7)ccnc5n4C)CC3)c(F)c2)CC1 (stereo partly drawn) [Example 3u106, 3-(3-cyclopropyl-5-(((S)-4-((1-(3,5-difluoro-4-(1-((1-methyl-4-(4-oxo-1,2,3,4-tetrahydro-5H-pyrrolo[3,2-c]pyridin-5-yl)-1H-pyrrolo[2,3-b]pyridin-2-yl)methyl)piperidin-4-yl)benzoyl)piperidin-4-yl)methyl)-3-methylpiperazin-1-yl)methyl)-2-oxo-2,3-dihydro-1H-benzo[d]imidazol-1-yl)piperidine-2,6-dione]
1.4	2.8	Cc1cc(C(=O)N2CCC(CN3CCN(Cc4ccc5c(c4)n(C)c(=O)n5C4CCC(=O)NC4=O)C[C@@H]3C)CC2)cc(F)c1C1=CCN([C@@H](C)c2cc3c(-n4cc(F)c5c(c4=O)CCN5)ccnc3n2C)CC1 (stereo partly drawn) [Example 3u109, 3-(5-(((S)-4-((1-(3-fluoro-4-(1-((S)-1-(4-(7-fluoro-4-oxo-1,2,3,4-tetrahydro-5H-pyrrolo[3,2-c]pyridin-5-yl)-1-methyl-1H-pyrrolo[2,3-b]pyridin-2-yl)ethyl)-1,2,3,6-tetrahydropyridin-4-yl)-5-methylbenzoyl)piperidin-4-yl)methyl)-3-methylpiperazin-1-yl)methyl)-3-methyl-2-oxo-2,3-dihydro-1H-benzo[d]imidazol-1-yl)piperidine-2,6-dione]
0.4	0.3	CNc1ccn(-c2ccnc3c2cc([C@H](C)N2CC=C(c4c(C)cc(C(=O)N5CCC(CN6CCN(Cc7ccc8c(c7)n(C7CC7)c(=O)n8C7CCC(=O)NC7=O)C[C@@H]6C)CC5)cc4F)CC2)n3C)c(=O)c1 (stereo partly drawn) [Example 3u111, 3-(3-cyclopropyl-5-(((S)-4-((1-(3-fluoro-5-methyl-4-(1-((S)-1-(1-methyl-4-(4-(methylamino)-2-oxopyridin-1 (2H)-yl)-1H-pyrrolo[2,3-b]pyridin-2-yl)ethyl)-1,2,3,6-tetrahydropyridin-4-yl)benzoyl)piperidin-4-yl)methyl)-3-methylpiperazin-1-yl)methyl)-2-oxo-2,3-dihydro-1H-benzo[d]imidazol-1-yl)piperidine-2,6-dione]
8.3	9.1	CNc1c(F)cn(-c2ccnc3c2cc(CN2CCC(c4c(F)cc(C(=O)N5CCC(CN6CCN(Cc7ccc8c(c7)C7(CC7)C(=O)N8C7CCC(=O)NC7=O)C[C@@H]6C)CC5)cc4F)CC2)n3C)c(=O)c1F (stereo partly drawn) [Example 3u115, 3-(5′-(((S)-4-((1-(4-(1-((4-(3,5-difluoro-4-(methylamino)-2-oxopyridin-1 (2H)-yl)-1-methyl-1H-pyrrolo[2,3-b]pyridin-2-yl)methyl)piperidin-4-yl)-3,5-difluorobenzoyl)piperidin-4-yl)-methyl)-3-methylpiperazin-1-yl)methyl)-2′-oxospiro[cyclopropane-1,3′-indolin]-1′-yl)piperidine-2,6-dione]
8.7	6	Cc1cc(C(=O)N2CCC(CN3CCN(Cc4ccc5c(c4)C4(CC4)C(=O)N5C4CCC(=O)NC4=O)C[C@@H]3C)CC2)cc(F)c1C1=CCN([C@@H](C)c2cc3c(-n4cc(F)c5c(c4=O)CCN5)ccnc3n2C)CC1 (stereo partly drawn) [Example 3u116, 3-(5′-(((S)-4-((1-(3-fluoro-4-(1-((S)-1-(4-(7-fluoro-4-oxo-1,2,3,4-tetrahydro-5H-pyrrolo[3,2-c]pyridin-5-yl)-1-methyl-1H-pyrrolo[2,3-b]pyridin-2-yl)ethyl)-1,2,3,6-tetrahydropyridin-4-yl)-5-methylbenzoyl)piperidin-4-yl)methyl)-3-methylpiperazin-1-yl)methyl)-2′-oxospiro[cyclopropane-1,3′-indolin]-1′-yl)piperidine-2,6-dione]
